Laboratory results: ChEMBL document CHEMBL4376815, “The Development Process for Discovery and Clinical Advancement of Modern Antimalarials” (J Med Chem, 2019)

Tests used:
[1] = Tmax in human at […], po and measured up to 96 to 144 hrs by LC-MS/MS analysis; format: ADME, organism-based; settings: in vivo
[2] = Tmax in mouse at 24.6 mg/kg, po and measured up to 24 hrs by LC/MS analysis; format: ADME, organism-based; settings: in vivo
[3] = Oral bioavailability in rat at 23.7 mg/kg and measured up to 24 hrs by LC/MS analysis; format: ADME, organism-based; settings: in vivo
Plasmodium falciparum [4] = assay: Antimalarial activity against Plasmodium falciparum NF54 infected in human erythrocytes assessed as reduction in [3H]-hypoxanthine incorporation incubated for 48 hrs followed by addition of [3H]-hypoxanthine and measured after 24 hrs by liquid scintillation counting method; format: functional, organism-based
Plasmodium falciparum [5] = assay: Antimalarial activity against Plasmodium falciparum K1 infected in human erythrocytes assessed as reduction in [3H]-hypoxanthine incorporation incubated for 48 hrs followed by addition of [3H]-hypoxanthine and measured after 24 hrs by liquid scintillation counting method; format: functional, organism-based
Plasmodium falciparum [6] = assay: Antimalarial activity against Plasmodium falciparum W2 infected in human erythrocytes assessed as reduction in [3H]-hypoxanthine incorporation incubated for 48 hrs followed by addition of [3H]-hypoxanthine and measured after 24 hrs by liquid scintillation counting method; format: functional, organism-based
Plasmodium berghei [7] = assay: Antimalarial activity against Plasmodium berghei infected in NMRI mouse assessed as reduction in parasite growth at 5.3 mg/kg, po administered daily for 3 consecutive days by flow cytometric analysis relative to control; format: functional; set-up: scale not given: the % may be the effect or the level left
Plasmodium berghei [8] = assay: Antimalarial activity against Plasmodium berghei infected in NMRI mouse assessed as reduction in parasite growth at 30 mg/kg, po administered daily for 3 consecutive days by flow cytometric analysis relative to control; format: functional; set-up: scale not given: the % may be the effect or the level left
Plasmodium berghei [9] = assay: Antimalarial activity against Plasmodium berghei infected in NMRI mouse assessed as mean survival days at 10 mg/kg, po administered once and measured up to 30 days; format: functional
[10] = Volume of distribution in Wistar Hannover rat at 5 mg/kg, iv by LC-MS/MS analysis; format: ADME, organism-based; settings: in vivo
[11] = Volume of distribution in Beagle dog at 1 mg/kg, iv by LC-MS/MS analysis; format: ADME, organism-based, Canis lupus familiaris; settings: in vivo
[12] = Oral bioavailability in Beagle dog at 3 mg/kg by LC-MS/MS analysis; format: ADME, organism-based, Canis lupus familiaris; settings: in vivo
[13] = target: Voltage-gated inwardly rectifying potassium channel KCNH2 (Homo sapiens, UniProt Q12809); assay: Inhibition of human ERG by patch clamp method
Chain of Voltage-gated inwardly rectifying potassium channel KCNH2 (Q12809 whole entry): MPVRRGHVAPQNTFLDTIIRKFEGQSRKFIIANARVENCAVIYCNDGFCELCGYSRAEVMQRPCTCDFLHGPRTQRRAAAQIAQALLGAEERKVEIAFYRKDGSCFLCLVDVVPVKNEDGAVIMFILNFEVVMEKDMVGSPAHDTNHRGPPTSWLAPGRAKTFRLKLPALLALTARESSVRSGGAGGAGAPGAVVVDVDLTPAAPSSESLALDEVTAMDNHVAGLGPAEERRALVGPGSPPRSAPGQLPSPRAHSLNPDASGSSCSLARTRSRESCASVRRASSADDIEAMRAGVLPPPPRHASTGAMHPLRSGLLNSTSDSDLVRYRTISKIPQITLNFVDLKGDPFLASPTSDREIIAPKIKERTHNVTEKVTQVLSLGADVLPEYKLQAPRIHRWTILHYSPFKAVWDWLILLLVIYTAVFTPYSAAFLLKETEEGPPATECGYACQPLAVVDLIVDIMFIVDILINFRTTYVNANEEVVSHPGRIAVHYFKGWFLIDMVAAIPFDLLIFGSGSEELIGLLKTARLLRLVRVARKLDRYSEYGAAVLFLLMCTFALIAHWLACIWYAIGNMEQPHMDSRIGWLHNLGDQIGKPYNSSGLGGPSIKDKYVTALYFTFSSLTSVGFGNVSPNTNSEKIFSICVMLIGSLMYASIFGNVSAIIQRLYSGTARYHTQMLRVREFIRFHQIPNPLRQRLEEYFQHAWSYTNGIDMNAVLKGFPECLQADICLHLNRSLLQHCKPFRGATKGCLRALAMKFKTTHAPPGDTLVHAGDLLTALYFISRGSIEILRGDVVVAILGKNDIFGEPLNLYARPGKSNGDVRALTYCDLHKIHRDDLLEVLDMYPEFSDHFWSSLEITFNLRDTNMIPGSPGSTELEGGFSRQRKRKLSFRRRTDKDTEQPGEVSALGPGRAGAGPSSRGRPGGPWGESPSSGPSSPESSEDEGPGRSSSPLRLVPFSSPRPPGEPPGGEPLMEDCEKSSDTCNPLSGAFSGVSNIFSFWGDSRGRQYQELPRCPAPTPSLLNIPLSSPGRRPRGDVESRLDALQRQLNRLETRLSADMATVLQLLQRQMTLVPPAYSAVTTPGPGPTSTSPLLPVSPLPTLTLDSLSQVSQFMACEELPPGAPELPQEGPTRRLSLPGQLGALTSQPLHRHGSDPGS

Plasmodium vivax [14] = assay: Antimalarial activity against Plasmodium vivax infected in human assessed as reduction in parasite growth at 30 mg/kg, po administered daily for 3 consecutive day and measured on day 5 relative to control; format: functional; set-up: scale not given: the % may be the effect or the level left
Plasmodium falciparum [15] = assay: Antimalarial activity against Plasmodium falciparum infected in human assessed as parasite clearance time at 30 mg/kg, po; format: functional
Plasmodium vivax [16] = assay: Antimalarial activity against Plasmodium vivax infected in human assessed as parasite clearance time at 30 mg/kg, po administered daily for 3 consecutive day and measured on day 5; format: functional
[17] = AUC (0 to 24 hrs) in human at 300 mg, po by LC-MS/MS analysis; settings: in vivo
[18] = AUC (0 to 24 hrs) in human at 150 mg, po for 3 days and measured on day 1 by LC-MS/MS analysis; settings: in vivo
[19] = Apparent clearance in human at 300 mg, po and measured up to 96 to 144 hrs by LC-MS/MS analysis; settings: in vivo, read-out: CL(app) (converted)

C[C@H]1Cc2c([nH]c3cc(Cl)c(F)cc23)[C@@]2(N1)C(=O)Nc1ccc(Cl)cc12 [CIPARGAMIN]
Tmax [1]: 8 h
Tmax [2]: 1 h
bioavailability [3]: 100%
EC50 (Plasmodium falciparum [4]): 0.5 to 1.4 nM
EC50 (Plasmodium falciparum [5]): 0.5 to 1.4 nM
EC50 (Plasmodium falciparum [6]): 0.5 to 1.4 nM
Activity (Plasmodium berghei [7]): 99%
Activity (Plasmodium berghei [8]): 90%
MSD (Plasmodium berghei [9]): 13.3 days
Vd [10]: 3.18 L/kg
Vd [11]: 2.17 L/kg
bioavailability [12]: 68%
IC50 [13]: ≥ 30 µM
Activity (Plasmodium vivax [14]): 100%
Time (Plasmodium falciparum [15]): 10 h
Time (Plasmodium vivax [16]): 30 h
AUC(0-t) at 24 h [17]: 36000 ng·h/mL
AUC(0-t) at 24 h [18]: 15000 ng·h/mL
CL/F [19]: 91.7 mL/min
